US9125384B2, “Mouse having human leukemic stem cell and leukemic non-stem cell amplified therein, and method for production thereof” (RIKEN, priority 2007, dated 2015)
Values joined by “and” are separate entries in the source; they are usually repeats but may differ in a detail not shown here. Identical values can stand only once. “Also recorded” adds a separate entry of the source.

Experiments:
[1] = system: human AML cells (hCD45^+hCD33^+); experiment: In vivo anti-leukemic cytotoxicity of Ara-C in AML-engrafted NOD/SCID/IL2rγ^null recipients (PB AML cell count); design: species or system mouse (NOD/SCID/IL2rγ^null) engrafted with human AML
[2] = system: hCD34^+hCD38^− LSCs vs non-stem AML cell fractions; experiment: Post-chemotherapy apoptosis analysis of BM AML cell fractions (Annexin V/7AAD flow cytometry); type: in vivo, mouse (NOD/SCID/IL2rγ^null) engrafted with human AML; details: 150 mg/kg Ara-C i.p.; BM at day 3 after injection; n=3; p<0.05
Experimental: NOD/SCID/IL2rγ^null recipients transplanted with 10^4-10^5 sorted BM hCD34^+hCD38^− cells from Cases 4, 7 and 11 at 12-20 weeks post-transplantation were injected with 150 mg/kg Ara-C i.p. At day 3 after injection, BM was analyzed for the presence of apoptotic cells by first dividing the hCD34^+hCD38^−, hCD34^+hCD38^+ and hCD34^− fractions within the hCD45^+ gate and quantifying the viable population in each fraction by Annexin V and 7-amino-actinomycin D (7AAD) staining (BD Immunocytometry, San Jose, Calif.). Annexin V^−7AAD^− hCD45^+hCD34^+hCD38^− cells were sorted and 10^3 cells were injected intravenously into irradiated newborn NOD/SCID/IL2rγ^null recipients.

[3] = system: human AML cells in BM cavity and endosteal surface; experiment: Histology of femoral bone sections after Ara-C (HE, TUNEL, immunostaining); type: in vivo, mouse (NOD/SCID/IL2rγ^null) engrafted with human AML; details: day 3 after Ara-C injection, anti-hCD34/hCD38/osteopontin staining
Experimental: Paraformaldehyde-fixed, decalcified, paraffin-embedded sections were prepared from femurs of the recipients transplanted with sorted hCD34^+hCD38^− AML BM cells. Each section was subjected to hematoxylin and eosin (HE) staining. TUNEL staining was performed according to standard procedures using ApopTag peroxidase in situ apoptosis detection kit (Intergene, Purchase, N.Y.) by Biopathology Institute (Oita, Japan). To determine the localization of the CD34^+ cell populations, sections were immunostained with mouse anti-hCD34 antibody (Immunotech, France) and rat anti-mouse osteopontin antibody (Immuno-Biological Laboratories, Tokyo, Japan) were used. For the quantitative localization of LSCs, enodosteal and central regions were defined as the zones within or outside twelve cells from the endosteum, respectively, as described previously (Nilsson, S. K., Johnston, H. M. & Coverdale, J. A. Spatial localization of transplanted hemopoietic stem cells: inferences for the localization of stem cell niches. Blood 97, 2293-2299 (2001)). […] A total of 10,065 cells were counted from femoral and tibial sections. For localization post-engraftment analysis, a total of 24,973 cells were counted using femoral and tibial sections prepared from recipients of BM hCD34^+hCD38^− cells from Cases 4, 10 and 11. […]

[4] = Adverse effect of Ara-C in vivo (hemoglobin, platelet count, plasma AST); details: 150 mg/kg Ara-C i.p.; day 8 after injection
Experimental: Intraperitoneal (i.p.) injection of 150 mg/kg Ara-C (Biogenesis, Poole, UK) was performed in NOD/SCID/IL2rγ^null recipients transplanted with 10^4 purified BM […] cells from Cases 4 (n=2) and 7 (n=4) at 12-16 weeks post-transplantation. PB was obtained at the time of injection (day 0) and every four days thereafter and MNCs were labeled with mouse anti-hCD45 and anti-hCD33 monoclonal antibodies to determine the fraction of hCD45^+hCD33^+ cells using flow cytometry. The number of AML cells/ml PB was determined by multiplying the fraction of PB hCD45^+CD33^+ cells with total PB leukocyte count/ml in each recipient. Hemoglobin concentration, platelet count and plasma aspartate aminotransferase (AST) levels were analyzed prior to and at 8 days after Ara-C administration.

## Nc1ccn([C@@H]2O[C@H](CO)[C@@H](O)[C@@H]2O)c(=O)n1 [Ara-C, cytosine arabinoside]
[1]; single 150 mg/kg Ara-C i.p. on day 0, PB
  time of nadir of AML count: 8 to 12 days
[1]; single 150 mg/kg Ara-C i.p. on day 0, PB, 150 mg/kg
  time of recovery of PB AML cell count (relapse): 28 to 32 days and 16 to 28 days
[1]; single 150 mg/kg Ara-C i.p., 12-16 weeks post-transplantation, monitored every four days, 150 mg/kg
  PB AML burden (hCD45^+hCD33^+ cell count per ml of PB): rapid decline in AML burden; also recorded: markedly reduced
[2]
  chemosensitivity of hCD34^+hCD38^− LSCs compared with non-stem AML cell fractions (apoptosis): relative resistance to Ara-C; also recorded: more resistant to Ara-C; also recorded: relatively resistant to Ara-C treatment
[3]
  localization of apoptotic and surviving cells in femoral bone sections: preferential killing of cells in the middle of the BM cavity; also recorded: remain at the endosteal surface abutting murine osteoblasts; also recorded: marked segregation of apoptotic cells in the center of the bone marrow cavity
[4]
  hematologic adverse effects (hemoglobin concentration, platelet count): Typical hematologic adverse effects; also recorded: anemia and thrombocytopenia in all treated mice
